Assay results reported in publication PMC10223898 (Pharmaceuticals, 2023).
Where two headings read alike, the source gives them in different places.

Assays:
LsrK [1] = molecular target: T1, LsrK (Salmonella typhimurium, UniProt Q8ZKQ6); test: LsrK inhibition assay (Kinase-Glo luminescence); assay type: biochemical, S. typhimurium; conditions: for inhibition at 200 µM: compound at 200 μM
T1 construct: hexa-histidine (C); made in house; host or cells: E. coli BL21(DE3), pET-28a
Experimental: (§1) To express LsrK or LsrK-N with a hexa-histidine tag at the C-terminus, the LsrK or LsrK-N encoding gene of S. typhimurium was amplified using primers carrying restriction endonuclease sites for BamHI and XhoI, respectively. The amplified product was cloned into the expression vector pET-28a with a C-terminal hexa-histidine tag and transfected into E. coli BL21(DE3) cells. The transformed cells were selected on LB agar plates containing 50 µg/mL kanamycin. The recombinant isolates were grown at 37 °C to the mid-log exponential phase. Protein synthesis was induced by 0.5 mM IPTG. After overnight growth, the cells were pelleted at 13,000× g for 10 min at 4 °C, resuspended in lysis buffer (50 mM NaH2PO4, 300 mM NaCl, and pH 8.0), and sonicated on ice for 10 cycles with a 30-s pulse and 30-s pause. The bacterial lysate was then centrifuged at 4 °C, 13,000× g for 10 min, and the supernatant passed through a 0.22 µm filter.
The LsrK inhibition assay was performed as described previously. The 62 selected compounds were dissolved in DMSO at a concentration of 2 mM. The assay was carried out with final concentrations of 300 nM LsrK, 100 μM ATP, and 300 μM DPD in a reaction buffer containing 25 mM TEA, pH 7.4, 800 μM MgCl2, and 0.1 mg/mL BSA. Specifically, 10 μL DPD, 10 μL LsrK, and 5 μL of the compound were added to a 96-well plate, and a 25 μL ATP or 25 μL reaction buffer was added after 30 min of incubation. The plate was incubated for 10 min at 37 °C, then 50 μL of kit reagent was added and the plate was incubated at 37 °C for 15 min. The luminescence signal was measured by the Enspire 2300 microplate reader (PerkinElmer). To confirm the activity of hits selected by primary screening, dose-response experiments were performed (200–6.25 µM). The inhibition % for each tested compound was determined as described previously. The IC50 values were calculated using the four logistic parameters.

[2] = system: AI-2 QS in WHQ02 (E. coli BL21 ΔTolC pWHQ01); test: Cell-based AI-2-mediated QS interference assay in WHQ02; conditions: Escherichia coli
Source text: (§2) All chemicals were purchased from Sigma-Aldrich (St. Louis, MO, USA) if not otherwise stated. DPD was purchased from […] ZZBIO Co., Ltd. (Shanghai, China). The Kinase-Glo Max Luminescent kinase assay kit was purchased from Promega Corp. (Madison, WI, USA). The NTA sensor chip was purchased from GE Healthcare (Chicago, IL, USA). All compounds selected by virtual screening were purchased from Topscience Biotechnology Co., Ltd. (Shanghai, China). The QS reporter strains WHQ01 (S. typhimurium ATCC 202165 ΔTolC pWHQ01) and WHQ02 (E. coli BL21 ΔTolC pWHQ01) were donated by Huiqi Wen (Institute of Microbiology and Epidemiology, Academy of Military Sciences, Beijing, China). The plasmid pWHQ01 was constructed by cloning of lsr promoters and the luxCDABE luminescent gene. BamHI, XhoI, EcoRI, and NotI restriction endonucleases were purchased from New England Biolabs (Ipswich, MA, USA). pET-28a and pGEX-4T-1 were purchased from Novagen (Madison, WI, USA). E. coli BL21 (DE3) was purchased from TransGen Biotech Co., Ltd. (Beijing, China). The Ni-NTA column and GST Gravity column were purchased from Sangon Biotech (Shanghai, China). Sodium dodecyl sulfate-polyacrylamide gel electrophoresis (SDS-PAGE) gels and the Bradford Protein Assay Kit were purchased from Thermo Fisher Scientific (Waltham, MA, USA). Ultrafiltration centrifuge tubes were purchased from Millipore (Bedford, MA, USA). Dialysis bags were purchased from Beijing Solarbio Science and Technology Co., Ltd. (Beijing, China).
(§3) WHQ01 or WHQ02 was cultured overnight and diluted 1:100 in fresh LB supplemented with 100 µg/mL ampicillin and grown at 30 °C until the logarithmic phase (OD600 = 0.4–0.6). The bacterial culture was centrifuged at 4000× g for 5 min and the pellet was resuspended with fresh LB to prepare a suspension of 2 McFarland standard, which was added to a 96-well plate. In the experimental group, 62 compounds with final concentrations ranging from […] were added to obtain a total volume of 100 µL. A negative control comprising 100 µL of LB with DMSO of the same volume and a positive control comprising 100 µL of LB supplemented with 2% glucose and DMSO of the same volume were also added. Then, bacteria were grown at 37 °C for 3 h. The […] of WHQ01 or WHQ02 was directly regulated by the Lsr promoters to reflect the strength of AI-2 QS. Luminescence was measured by the Enspire 2300 microplate reader. To further study the effect of compounds on bacterial growth, a suspension containing 1 × 10^8 CFU/mL of WHQ01 or WHQ02 (0.5 McFarland standard) was diluted 1:100 with LB and added to a 96-well plate. Compounds were added to the 96-well plate at a final concentration of 100 µM and diluted in a gradient. DMSO of the same volume was added as the control group. The plate was grown at 37 °C for 18–24 h. The OD600 values were recorded using the Enspire 2300 microplate reader. The experiment was performed three times.

[3] = system: AI-2 QS in WHQ01 (S. typhimurium ATCC 202165 ΔTolC pWHQ01); test: Cell-based AI-2-mediated QS interference assay in WHQ01; conditions: Salmonella enterica, read-out: WHQ01 (IC50)
Source text: as §2, §3

LsrK [4] = molecular target: T1, LsrK; test: LsrK inhibition assay (Kinase-Glo luminescence); assay type: biochemical, S. typhimurium; conditions: dose-response curves at 50, 100 and 150 μM ATP
LsrK [5] = molecular target: T1, LsrK; test: SPR assay on immobilized LsrK; assay type: binding, S. typhimurium
Experimental: as §1
(§4) Serial dilutions of compound 4171-0375 were injected, ranging in concentrations from 100 to 1.56 µM, an intermediate concentration of 12.5 µM was set as a repeat, and 1× PBS-T with 5% v/v DMSO was set as a control group. The association time was set to 120 s, the dissociation time was set to 130 s, and the flow rate was set to 30 µL/min. The resulting data were fit to the affinity binding model using Biacore Evaluation Software (GE Healthcare).

[6] = molecular target: T2, LsrK-N protein (HPr binding domain, residues 1-260) (Salmonella typhimurium, UniProt Q8ZKQ6); test: SPR assay on immobilized LsrK-N; set-up: species or system S. typhimurium
T2 construct: hexa-histidine (C); made in house; host or cells: E. coli BL21(DE3), pET-28a
T2 sequence (Q8ZKQ6 1-260): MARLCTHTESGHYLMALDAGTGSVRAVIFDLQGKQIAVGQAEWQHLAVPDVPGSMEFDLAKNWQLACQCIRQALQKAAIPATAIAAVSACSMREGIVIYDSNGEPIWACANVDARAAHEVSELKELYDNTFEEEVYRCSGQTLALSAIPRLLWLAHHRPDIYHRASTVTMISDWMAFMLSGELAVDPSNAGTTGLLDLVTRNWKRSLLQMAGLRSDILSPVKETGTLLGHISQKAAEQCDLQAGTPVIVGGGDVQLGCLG
Experimental: as §1, §4

[7] = dose-response 200–6.25 µM, 100 μM ATP, 300 μM DPD, mean ± SD, n = 3, read-out: LsrK (IC50)
[8] = dose-response assay, read-out: LsrK inhibition IC50

T1 sequence (Q8ZKQ6 whole entry): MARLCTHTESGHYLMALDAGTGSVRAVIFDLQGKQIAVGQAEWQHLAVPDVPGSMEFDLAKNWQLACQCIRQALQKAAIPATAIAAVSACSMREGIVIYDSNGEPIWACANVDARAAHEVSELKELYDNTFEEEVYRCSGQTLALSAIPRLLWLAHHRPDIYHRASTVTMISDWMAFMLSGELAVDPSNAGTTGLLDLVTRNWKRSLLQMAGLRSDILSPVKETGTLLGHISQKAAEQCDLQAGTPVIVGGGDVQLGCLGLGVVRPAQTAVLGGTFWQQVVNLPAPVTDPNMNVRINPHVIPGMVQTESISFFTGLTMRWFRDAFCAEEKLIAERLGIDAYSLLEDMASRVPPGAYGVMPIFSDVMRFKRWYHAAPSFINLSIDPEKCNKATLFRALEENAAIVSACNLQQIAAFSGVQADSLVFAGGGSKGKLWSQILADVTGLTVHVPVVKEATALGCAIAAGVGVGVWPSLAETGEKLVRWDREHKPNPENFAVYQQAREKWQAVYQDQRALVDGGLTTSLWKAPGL

| Compound | inhibition at 200 µM (LsrK [1]; mean ± SD, n = 3) | IC50 (LsrK [1]; [7]) | IC50 ([2]; BL21, read-out: WHQ02 (IC50)) | IC50 [3] | IC50 (LsrK [1]; [8]) | ATP competition (mode of inhibition) (LsrK [4]) | IC50 ([2]; BL21, read-out: AI-2 QS inhibition IC50 against WHQ02) | Kd (LsrK [5]; His-tagged LsrK on NTA chip, Biacore 8K, affinity model) | binding and dissociation behaviour on LsrK (SPR) (LsrK [5]; sensorgram, in words) | Kd ([6]; His-tagged LsrK-N on NTA chip, Biacore 8K, affinity model) | binding and dissociation behaviour on LsrK-N (SPR) ([6]; sensorgram, in words) |
| --- | --- | --- | --- | --- | --- | --- | --- | --- | --- | --- | --- |
| Cc1ccc(NC(=O)C[C@H](C)n2ccnc2)cc1Cl [Compound G268-0878] | 58 ± 5% | 129 ± 6.14 µM | 42.3 ± 1.42 µM | 30.6 ± 1.26 µM |  |  |  |  |  |  |  |
| COc1cc(/C=C2/SC(=S)N(c3cccc(C(F)(F)F)c3)C2=O)ccc1OCC(=O)O [Compound 3229-1889] | 63 ± 4% | 121 ± 5.37 µM | 15 ± 1.24 µM | 24.7 ± 1.42 µM |  |  |  |  |  |  |  |
| Cc1c(CC(=O)O)c(=O)oc2c(C)c(OCc3ccc(F)cc3F)ccc12 [Compound D715-0257] | 57 ± 7% | 153 ± 5.43 µM | 22.3 ± 2.15 µM | 21.1 ± 1.18 µM |  |  |  |  |  |  |  |
| CCOc1cc(C2NC(C(=O)O)CS2)ccc1OCc1c(F)cccc1Cl (stereo not shown) [Compound 8012-5390] | 60 ± 4% | 147 ± 5.58 µM | 17.7 ± 0.98 µM | 23.3 ± 1.05 µM |  |  |  |  |  |  |  |
| CN1CCN(C(=O)c2ccc(NCc3ccc(F)cc3)c(S(=O)(=O)Nc3cccc(C(F)(F)F)c3)c2)CC1 [Compound K659-0421] | 75 ± 8% | 73.7 ± 5.33 µM | 17 ± 0.37 µM | 7.97 ± 0.38 µM | < 100 µM | non-ATP competitive inhibitors |  |  |  |  |  |
| NCCc1cn(Cc2ccc(C(F)(F)F)cc2)nn1 [Compound 8020-4294] | 65 ± 9% | 148 ± 6.92 µM | 67.2 ± 4.32 µM | 24.9 ± 1.1 µM |  |  |  |  |  |  |  |
| CCOc1cc(/C=N/NC(=N)N)ccc1OCc1ccc(Cl)cc1 [Compound 4171-0375] | 98 ± 7% | 26.1 ± 2.94 µM | 30.1 ± 1.62 µM | 42.9 ± 1.63 µM | < 100 µM | non-ATP competitive inhibitors | 29.1 ± 1.23 µM | 94.5 µM | quickly bound and dissociated | 25.1 µM | quickly bound and dissociated |
